Tested on: mice
Test: Neuropharmacological Assay (SmartCube)
Type: in vivo
Settings: for minimal effective dose: Mus musculus, read-out: POTENCY (minimal effective dose, MED); for minimal effective dose / POTENCY (minimal effective dose, MED): MED = dose having 50% or more total activity in SmartCube; for AD: ADHD (SmartCube probability) / AG: analgesic (SmartCube probability) / AX: anxiolytic (SmartCube probability) / CE: cognitive enhancer (SmartCube probability) / DP: anti-depressant (SmartCube probability) / MS: mood stabilizer (SmartCube probability) / PS: anti-psychotic (SmartCube probability) / SD: sedative hypnotic (SmartCube probability) / UN: uncharacterized CNS activity (SmartCube probability): mice, i.p. 15 min before test, most efficacious dose(s) of 3 doses
Procedure, shortened: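 Compounds in NMP/PEG/propylene glycol given i.p. 15 min before automated video-based behavioral testing, at 3 doses; behavioral signature compared with a reference-compound database to give probability per drug class, reported at most efficacious dose. MED = dose (mpk) giving ≥50% total activity; doses typically 0.3–30 mpk.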

| SMILES | minimal effective dose | AD: ADHD (SmartCube probability) | AG: analgesic (SmartCube probability) | AX: anxiolytic (SmartCube probability) | CE: cognitive enhancer (SmartCube probability) | DP: anti-depressant (SmartCube probability) | MS: mood stabilizer (SmartCube probability) | PS: anti-psychotic (SmartCube probability) | SD: sedative hypnotic (SmartCube probability) | UN: uncharacterized CNS activity (SmartCube probability) | POTENCY (minimal effective dose, MED) |
| --- | --- | --- | --- | --- | --- | --- | --- | --- | --- | --- | --- |
| CNC[C@@H]1OCCc2c(C#N)cccc21 [Example 47, (R)-1-((methylamino)methyl)isochromane-5-carbonitrile] | 3 to 10 mg/kg | + (LOQ≤ + <5%) | + (LOQ≤ + <5%) | ++ (5%≤ ++ <25%) | + (LOQ≤ + <5%) | ++++ (50%≤ ++++) | + (LOQ≤ + <5%) | ++ (5%≤ ++ <25%) | ++ (5%≤ ++ <25%) | ++ (5%≤ ++ <25%) |  |
| CC(N)C1OCCc2ccc3c(c21)OCO3 (stereo not drawn) [Example 55] |  | + (LOQ≤ + <5%) | ++ (5%≤ ++ <25%) | ++ (5%≤ ++ <25%) | + (LOQ≤ + <5%) | ++ (5%≤ ++ <25%) | + (LOQ≤ + <5%) | + (LOQ≤ + <5%) | + (LOQ≤ + <5%) | ++++ (50%≤ ++++) | C (>10 to ≤30 mpk) |
| CNC(C)C1OCCc2ccc3c(c21)OCO3 (stereo not drawn) [Example 57] |  | + (LOQ≤ + <5%) | ++ (5%≤ ++ <25%) | ++ (5%≤ ++ <25%) | ++ (5%≤ ++ <25%) | + (LOQ≤ + <5%) | + (LOQ≤ + <5%) | + (LOQ≤ + <5%) | + (LOQ≤ + <5%) | +++ (25%≤ +++ <50%) | D (>30 mpk) |
| CNC[C@H]1OCCCc2cccc(F)c21 [Example 60, (S)-1-(9-fluoro-1,3,4,5-tetrahydrobenzo[c]oxepin-1-yl)-N-methylmethanamine] | 3 to 10 mg/kg | + (LOQ≤ + <5%) | + (LOQ≤ + <5%) | ++ (5%≤ ++ <25%) | + (LOQ≤ + <5%) | ++ (5%≤ ++ <25%) | + (LOQ≤ + <5%) | ++ (5%≤ ++ <25%) | ++++ (50%≤ ++++) | +++ (25%≤ +++ <50%) |  |
| CNC[C@@H]1OCCCc2cccc(F)c21 [Example 61, (R)-1-(9-fluoro-1,3,4,5-tetrahydrobenzo[c]oxepin-1-yl)-N-methylmethanamine] | 3 to 10 mg/kg | + (LOQ≤ + <5%) | + (LOQ≤ + <5%) | ++ (5%≤ ++ <25%) | + (LOQ≤ + <5%) | + (LOQ≤ + <5%) | + (LOQ≤ + <5%) | ++++ (50%≤ ++++) | + (LOQ≤ + <5%) | +++ (25%≤ +++ <50%) |  |
| CNC[C@H]1OCCc2c(OC)cccc21 [Example 62, (S)-1-(5-methoxyisochroman-1-yl)-N-methylmethanamine] | 10 to 30 mg/kg | + (LOQ≤ + <5%) | ++ (5%≤ ++ <25%) | ++++ (50%≤ ++++) | + (LOQ≤ + <5%) | + (LOQ≤ + <5%) | + (LOQ≤ + <5%) | + (LOQ≤ + <5%) | + (LOQ≤ + <5%) | ++ (5%≤ ++ <25%) |  |
| CNC[C@@H]1OCCc2c(OC)cccc21 [Example 63, (R)-1-(5-methoxyisochroman-1-yl)-N-methylmethanamine] |  | ++ (5%≤ ++ <25%) | + (LOQ≤ + <5%) | ++ (5%≤ ++ <25%) | + (LOQ≤ + <5%) | ++++ (50%≤ ++++) | + (LOQ≤ + <5%) | + (LOQ≤ + <5%) | ++ (5%≤ ++ <25%) | ++++ (50%≤ ++++) | A-B |
| CNC[C@H]1OCCc2ccc(Cl)cc21 [Example 64, (S)-1-(7-chloroisochroman-1-yl)-N-methylmethanamine] |  | + (LOQ≤ + <5%) | ++ (5%≤ ++ <25%) | +++ (25%≤ +++ <50%) | ++ (5%≤ ++ <25%) | + (LOQ≤ + <5%) | + (LOQ≤ + <5%) | ++ (5%≤ ++ <25%) | ++ (5%≤ ++ <25%) | ++++ (50%≤ ++++) | A-B |
| CNC[C@@H]1OCCc2ccc(Cl)cc21 [Example 65, (R)-1-(7-chloroisochroman-1-yl)-N-methylmethanamine] |  | + (LOQ≤ + <5%) | ++ (5%≤ ++ <25%) | ++ (5%≤ ++ <25%) | + (LOQ≤ + <5%) | ++ (5%≤ ++ <25%) | + (LOQ≤ + <5%) | ++ (5%≤ ++ <25%) | ++ (5%≤ ++ <25%) | ++++ (50%≤ ++++) | A-B |
| NC[C@H]1OCCc2c(Cl)cccc21 [Example 66, (S)-(5-chloroisochroman-1-yl)methanamine] |  | + (LOQ≤ + <5%) | + (LOQ≤ + <5%) | ++ (5%≤ ++ <25%) | + (LOQ≤ + <5%) | ++++ (50%≤ ++++) | + (LOQ≤ + <5%) | + (LOQ≤ + <5%) | + (LOQ≤ + <5%) | + (LOQ≤ + <5%) | A-B |
| NC[C@@H]1OCCc2c(Cl)cccc21 [Example 67, (R)-(5-chloroisochroman-1-yl)methanamine] |  | + (LOQ≤ + <5%) | + (LOQ≤ + <5%) | ++ (5%≤ ++ <25%) | + (LOQ≤ + <5%) | ++++ (50%≤ ++++) | + (LOQ≤ + <5%) | ++ (5%≤ ++ <25%) | + (LOQ≤ + <5%) | + (LOQ≤ + <5%) | A-B |
| CNC[C@H]1OCc2cccc(F)c21 [Example 68, (S)-1-(7-fluoro-1,3-dihydroisobenzofuran-1-yl)-N-methylmethanamine] | 3 to 10 mg/kg | + (LOQ≤ + <5%) | ++ (5%≤ ++ <25%) | ++ (5%≤ ++ <25%) | ++ (5%≤ ++ <25%) | ++ (5%≤ ++ <25%) | + (LOQ≤ + <5%) | ++ (5%≤ ++ <25%) | +++ (25%≤ +++ <50%) | ++ (5%≤ ++ <25%) |  |
| CNC[C@@H]1OCc2cccc(F)c21 [Example 69, (R)-1-(7-fluoro-1,3-dihydroisobenzofuran-1-yl)-N-methylmethanamine] | < 3 mg/kg | ++ (5%≤ ++ <25%) | +++ (25%≤ +++ <50%) | ++ (5%≤ ++ <25%) | + (LOQ≤ + <5%) | ++ (5%≤ ++ <25%) | ++ (5%≤ ++ <25%) | ++ (5%≤ ++ <25%) | + (LOQ≤ + <5%) | ++++ (50%≤ ++++) |  |
| NC[C@H]1OCCc2cccc(Cl)c21 [Example 70, (S)-(8-chloroisochroman-1-yl)methanamine] | 3 to 10 mg/kg | + (LOQ≤ + <5%) | ++ (5%≤ ++ <25%) | ++ (5%≤ ++ <25%) | ++ (5%≤ ++ <25%) | ++ (5%≤ ++ <25%) | + (LOQ≤ + <5%) | +++ (25%≤ +++ <50%) | ++ (5%≤ ++ <25%) | +++ (25%≤ +++ <50%) |  |
| NC[C@@H]1OCCc2cccc(Cl)c21 [Example 71, (R)-(8-chloroisochroman-1-yl)methanamine] | < 3 mg/kg | + (LOQ≤ + <5%) | ++ (5%≤ ++ <25%) | ++ (5%≤ ++ <25%) | ++ (5%≤ ++ <25%) | + (LOQ≤ + <5%) | + (LOQ≤ + <5%) | ++ (5%≤ ++ <25%) | + (LOQ≤ + <5%) | ++++ (50%≤ ++++) |  |
